Reference: patent US8088761B2, “Enzyme inhibitors” (Cancer Research Technology Limited, priority 2005, dated 2012)

Key:
Aurora-A = biological target: T1, Aurora-A (Homo sapiens, UniProt O14965); assay: Flashplate Aurora A enzyme inhibition assay; type: biochemical; details: Flashplate assay; IC50 range; read-out: Aurora-A inhibition
T1 sequence (O14965 1-403): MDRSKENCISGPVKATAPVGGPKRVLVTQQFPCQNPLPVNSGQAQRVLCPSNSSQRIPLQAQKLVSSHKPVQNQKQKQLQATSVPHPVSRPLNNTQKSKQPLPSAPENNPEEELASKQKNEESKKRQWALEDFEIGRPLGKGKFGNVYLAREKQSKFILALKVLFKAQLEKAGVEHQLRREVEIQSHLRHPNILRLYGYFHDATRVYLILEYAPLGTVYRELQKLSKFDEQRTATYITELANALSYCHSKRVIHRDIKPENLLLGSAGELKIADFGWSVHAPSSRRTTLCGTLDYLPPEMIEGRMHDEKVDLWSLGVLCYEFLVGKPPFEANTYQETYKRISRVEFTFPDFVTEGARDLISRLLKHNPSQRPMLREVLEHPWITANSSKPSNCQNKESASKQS
Description: Flashplate® Assay for Identification and Evaluation of Aurora-A Inhibitors
On this assay 384-well Basic Flashplate® (SMP400E, PerkinElmer) as solid assay platform was used. The plates were coated overnight at 4° C. with […] at 100 μg/ml in PBS buffer and used after being washed twice with PBS. 5 μl of compound in 2% DMSO was added to each well followed by 15 μl master mix of kinase buffer (50 mM Tris pH 7.5, 10 mM NaCl, 2.5 mM MgCl2, 1 mM […], 20 μM ATP, and 0.025 μCi/μl ^33P-ATP). Finally, 250 ng per well of Aurora-A enzyme was added. The plate was shaken for approximately 2 min on a flat-bed plate shaker (Wellmix, Denley, UK) and incubated for 2 hours at room temperature. The reaction was stopped by washing the plate twice on a 16-pin wash (ELX50 BioTek Instruments Ltd., Northstar, Bedford, UK) with 10 mM sodium pyrophosphate. The plate was then read on a TopCount-NX™ (PerkinElmer Life Sciences UK Ltd., Hounslow, UK).

HCT116 cells = assay: Cell viability assay (MTT) in HCT116 cell line; type: cell-based; details: Homo sapiens, HCT-116, 72 hrs, IC50 range, read-out: HCT116 cell growth inhibition
Description: Cell Viability Assay: Determination of IC50 of Aurora Inhibitors in HCT116 Cell Line Using MTT Assay. The effects of compounds of the Examples on cellular proliferation were determined using the MTT assay according to manufacturer's instructions (Sigma). Briefly, the human colon tumour cells HCT116, were seeded in triplicate into 96-well plates at 2500 cells/well 24 hours before treatment with a range of concentrations of Aurora inhibitors (0-50 μM). After 72 hrs, 15 μl/well of 0.5% 3-(4,5-dimethylthiazol-2-yl)-2,5-diphenyltetrazolium bromide (MTT) was added to the cells for 4 hrs at 37° C., the dye-stained viable cells were extracted by adding 150 μl/well of dimethyl sulphoxide (DMSO). […] The IC50 was calculated using the Prism software.

SMILES	IC50 (Aurora-A) [nM]	IC50 (HCT116 cells) [nM]
CN(C)c1ccc(-c2nc3c(N4CCN(C(=O)COc5ccccc5)CC4)c(Br)cnc3[nH]2)cc1 [Example 38, 1-(4-(6-Bromo-2-(4-(dimethylamino)phenyl)-3H-imidazo[4,5-b]pyridin-7-yl)piperazin-1-yl)-2-phenoxyethanone]	< 500	500 to 2000
CN(C)c1ccc(-c2nc3c(N4CCN(S(C)(=O)=O)CC4)c(Br)cnc3[nH]2)cc1 [Example 49, 4-(6-Bromo-7-(4-(methylsulfonyl)piperazin-1-yl)-3H-imidazo[4,5-b]pyridin-2-yl)-N,N-dimethylaniline]	< 500	500 to 2000
CC(c1ccccn1)N1CCN(c2c(Br)cnc3[nH]c(-c4ccc(N(C)C)cc4)nc23)CC1 (centres unmarked) [Example 50, 4-(6-Bromo-7-(4-(1-(pyridin-2-yl)ethyl)piperazin-1-yl)-3H-imidazo[4,5-b]pyridin-2-yl)-N,N-dimethylaniline]	< 500	500 to 2000
CC(c1cccnc1)N1CCN(c2c(Br)cnc3[nH]c(-c4ccc(N(C)C)cc4)nc23)CC1 (centres unmarked) [Example 52, 4-(6-Bromo-7-(4-(1-(pyridin-3-yl)ethyl)piperazin-1-yl)-3H-imidazo[4,5-b]pyridin-2-yl)-N,N-dimethylaniline]	< 500	500 to 2000
CC(c1ccncc1)N1CCN(c2c(Br)cnc3[nH]c(-c4ccc(N(C)C)cc4)nc23)CC1 (centres unmarked) [Example 53, 4-(6-Bromo-7-(4-(1-(pyridin-4-yl)ethyl)piperazin-1-yl)-3H-imidazo[4,5-b]pyridin-2-yl)-N,N-dimethylaniline]	< 500	500 to 2000
Cn1cc(-c2nc3c(N4CCN(Cc5cccnc5)CC4)c(Br)cnc3[nH]2)cn1 [Example 56, 6-Bromo-2-(1-methyl-1H-pyrazol-4-yl)-7-(4-(pyridin-3-ylmethyl)piperazin-1-yl)-3H-imidazo[4,5-b]pyridine]	< 500	2000 to 50000
Cc1nn(C)c(C)c1-c1nc2c(N3CCN(Cc4cccnc4)CC3)c(Br)cnc2[nH]1 [Example 57, 6-Bromo-7-(4-(pyridin-3-ylmethyl)piperazin-1-yl)-2-(1,3,5-trimethyl-1H-pyrazol-4-yl)-3H-imidazo[4,5-b]pyridine]	< 500	2000 to 50000
CN1CCN(Cc2cccc(-c3nc4c(N5CCN(Cc6cccnc6)CC5)c(Br)cnc4[nH]3)c2)CC1 [Example 58, 6-Bromo-2-(3-((4-methylpiperazin-1-yl)methyl)phenyl)-7-(4-(pyridin-3-ylmethyl)piperazin-1-yl)-3H-imidazo[4,5-b]pyridine]	< 500	500 to 2000
Cc1cc(NC(=O)CN2CCN(c3c(Cl)cnc4[nH]c(-c5ccc(N(C)C)cc5)nc34)CC2)on1 [Example 63, 2-(4-(6-Chloro-2-(4-(dimethylamino)phenyl)-3H-imidazo[4,5-b]pyridin-7-yl)piperazin-1-yl)-N-(3-methylisoxazol-5-yl)acetamide]	< 500	500 to 2000
Brc1cnc2[nH]c(-c3cccc(CN4CCOCC4)c3)nc2c1N1CCN(Cc2cccnc2)CC1 [Example 66, 6-Bromo-2-(3-morpholin-4-ylmethyl-phenyl)-7-(4-pyridin-3-ylmethyl-piperazin-1-yl)-3H-imidazo[4,5-b]pyridine]	< 500	< 500
Clc1ccc(CN2CCN(c3c(Br)cnc4[nH]c(-c5ccc(CN6CCOCC6)cc5)nc34)CC2)cc1 [Example 69, 6-Bromo-7-[4-(4-chloro-benzyl)-piperazin-1-yl]-2-(4-morpholin-4-ylmethyl-phenyl)-3H-imidazo[4,5-b]pyridine]	< 500	500 to 2000
CC(c1ccccc1)N1CCN(c2c(Br)cnc3[nH]c(-c4ccc(CN5CCOCC5)cc4)nc23)CC1 (centres unmarked) [Example 70, 6-Bromo-2-(4-morpholin-4-ylmethyl-phenyl)-7-[4-(1-phenyl-ethyl)-piperazin-1-yl]-3H-imidazo[4,5-b]pyridine]	< 500	500 to 2000
CC(c1ccccc1)N1CCN(c2c(Br)cnc3[nH]c(-c4ccc(N5CCN(C)CC5)cc4)nc23)CC1 (centres unmarked) [Example 71, 6-Bromo-2-[4-(4-methyl-piperazin-1-yl)-phenyl]-7-[4-(1-phenyl-ethyl)-piperazin-1-yl]-3H-imidazo[4,5-b]pyridine]	< 500	< 500
COc1ccc(-c2nc3c(N4CCN(CC5CC5)CC4)c(Br)cnc3[nH]2)cc1 [Example 73, 6-Bromo-7-(4-cyclopropylmethyl-piperazin-1-yl)-2-(4-methoxy-phenyl)-3H-imidazo[4,5-b]pyridine]	500 to 2000	500 to 2000
COc1ccc(-c2nc3c(N4CCN(Cc5cc(C)on5)CC4)c(Br)cnc3[nH]2)cc1 [Example 74, 6-Bromo-2-(4-methoxy-phenyl)-7-[4-(5-methyl-isoxazol-3-ylmethyl)-piperazin-1-yl]-3H-imidazo[4,5-b]pyridine]	< 500	< 500

Next, values leading:

IC50 (Aurora-A) [nM]	IC50 (HCT116 cells) [nM]	SMILES
< 500	2000 to 50000	CN(C)c1ccc(-c2nc3c(N4CCN(C(=O)Nc5nccs5)CC4)c(Br)cnc3[nH]2)cc1 [Example 42, 4-(6-Bromo-2-(4-(dimethylamino)phenyl)-3H-imidazo[4,5-b]pyridin-7-yl)-N-(thiazol-2-yl)piperazine-1-carboxamide]
< 500	500 to 2000	O=C(CN1CCN(c2c(Br)cnc3[nH]c(-c4cccnc4)nc23)CC1)Nc1nccs1 [Example 44, 2-(4-(6-Bromo-2-(pyridin-3-yl)-3H-imidazo[4,5-b]pyridin-7-yl)piperazin-1-yl)-N-(thiazol-2-yl)acetamide]
500 to 2000	2000 to 50000	NC(=O)C1CC1c1nc2c(N3CCN(CC(=O)Nc4nccs4)CC3)c(Br)cnc2[nH]1 (centres unmarked) [Example 46, 2-(6-Bromo-7-(4-(2-oxo-2-(thiazol-2-ylamino)ethyl)piperazin-1-yl)-3H-imidazo[4,5-b]pyridin-2-yl)cyclopropanecarboxamide]
< 500	< 500	COc1ccc(-c2nc3c(N4CCN(C(C)c5ccncc5)CC4)c(Br)cnc3[nH]2)cc1 (centres unmarked) [Example 54, 6-Bromo-2-(4-methoxyphenyl)-7-(4-(1-(pyridin-4-yl)ethyl)piperazin-1-yl)-3H-imidazo[4,5-b]pyridine]
< 500	2000 to 50000	CC(C)(C)OC(=O)NCc1ccc(-c2nc3c(N4CCN(Cc5cccnc5)CC4)c(Br)cnc3[nH]2)cc1 [Example 59, tert-Butyl 4-(6-bromo-7-(4-(pyridin-3-ylmethyl)piperazin-1-yl)-3H-imidazo[4,5-b]pyridin-2-yl)benzylcarbamate]
< 500	500 to 2000	NCc1ccc(-c2nc3c(N4CCN(Cc5cccnc5)CC4)c(Br)cnc3[nH]2)cc1 [Example 60, (4-(6-Bromo-7-(4-(pyridin-3-ylmethyl)piperazin-1-yl)-3H-imidazo[4,5-b]pyridin-2-yl)phenyl)methanamine]
< 500	500 to 2000	CN(C)Cc1ccc(-c2nc3c(N4CCN(Cc5cccnc5)CC4)c(Br)cnc3[nH]2)cc1 [Example 61, 1-(4-(6-Bromo-7-(4-(pyridin-3-ylmethyl)piperazin-1-yl)-3H-imidazo[4,5-b]pyridin-2-yl)phenyl)-N,N-dimethylmethanamine]
< 500	500 to 2000	CN(C)c1ccc(-c2nc3c(N4CCN(CC(=O)Nc5nccs5)CC4)c(C#N)cnc3[nH]2)cc1 [Example 62, 2-(4-(6-Cyano-2-(4-(dimethylamino)phenyl)-3H-imidazo[4,5-b]pyridin-7-yl)piperazin-1-yl)-N-(thiazol-2-yl)acetamide]
< 500	500 to 2000	COc1ccc(-c2nc3c(N4CCN(CC(=O)Nc5cc(C)no5)CC4)c(Cl)cnc3[nH]2)cc1 [Example 64, 2-(4-(6-Chloro-2-(4-methoxyphenyl)-3H-imidazo[4,5-b]pyridin-7-yl)piperazin-1-yl)-N-(3-methylisoxazol-5-yl)acetamide]
< 500	< 500	COc1ccc(-c2nc3c(N4CCN(Cc5ccncc5)CC4)c(Br)cnc3[nH]2)cc1 [Example 67, 6-Bromo-2-(4-methoxy-phenyl)-7-(4-pyridin-4-ylmethyl-piperazin-1-yl)-3H-imidazo[4,5-b]pyridine]
